Results published in publication PMC11677535, “Eremophilane- and Acorane-Type Sesquiterpenes from the Deep-Sea Cold-Seep-Derived Fungus Furcasterigmium furcatum CS-280 Cultured in the Presence of Autoclaved Pseudomonas aeruginosa QDIO-4” (Marine Drugs, 2024).

Target: T1, COX-2 (cyclooxygenase-2) (Homo sapiens, UniProt P35354)
T1 construct: gene PTGS2
T1 sequence (P35354 18-604): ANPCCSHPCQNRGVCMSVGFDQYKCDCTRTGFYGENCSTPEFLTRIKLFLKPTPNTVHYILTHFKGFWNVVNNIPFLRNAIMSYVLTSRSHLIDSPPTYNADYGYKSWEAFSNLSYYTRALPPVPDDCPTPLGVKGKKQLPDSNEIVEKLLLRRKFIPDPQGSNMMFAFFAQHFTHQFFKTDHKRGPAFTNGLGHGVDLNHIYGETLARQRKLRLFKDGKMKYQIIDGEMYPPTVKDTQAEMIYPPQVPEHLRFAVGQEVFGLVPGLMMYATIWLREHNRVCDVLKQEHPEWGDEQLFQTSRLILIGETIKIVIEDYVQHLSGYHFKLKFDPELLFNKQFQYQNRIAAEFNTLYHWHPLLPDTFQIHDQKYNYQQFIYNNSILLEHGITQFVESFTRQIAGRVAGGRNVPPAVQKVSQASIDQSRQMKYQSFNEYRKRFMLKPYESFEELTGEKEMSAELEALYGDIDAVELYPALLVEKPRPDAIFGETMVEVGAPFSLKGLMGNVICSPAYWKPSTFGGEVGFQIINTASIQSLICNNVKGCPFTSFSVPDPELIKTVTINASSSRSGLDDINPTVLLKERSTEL
Experiment: biochemical

| SMILES | IC50 [µM] |
| --- | --- |
| CC(=O)O[C@H]1[C@@H](O)C=C2C[C@@]3(O)OC[C@@]4(C)O[C@]43C[C@]2(C)[C@H]1C [compound 2, fureremophilane B] | 123 |
| CC(=O)O[C@H]1C=C2C[C@@]3(O)OC[C@@]4(C)O[C@]43C[C@]2(C)[C@@H](C)[C@H]1O [compound 3, fureremophilane C] | 93.4 |
